In PMC6131557, “Selective Cytotoxicity of Dihydroorotate Dehydrogenase Inhibitors to Human Cancer Cells Under Hypoxia and Nutrient-Deprived Conditions” (Frontiers in Pharmacology, 2018):
Like-named read-outs stand apart in the source and are kept apart here.

What was measured:
Complex II–III = assay: Succinate-cytochrome c reductase (complexes II–III) activity, bovine mitochondria; assay type: biochemical
Description: (§1) Recombinant human DHODH was purified, crystallized, and assayed as previously described ([Inaoka et al., 2016]) without modification. Bovine mitochondrial fractions were prepared as previously described ([Kita et al., 1988]) and NADH dehydrogenase (complex I), succinate:quinone reductase (complex II), quinol oxidase (complexes III–IV), NADH-cytochrome c reductase (complexes I–III), and succinate-cytochrome c (complexes II–III) activities were assayed following an established method ([Takamiya et al., 1986]; [Miyadera et al., 2001]; [Matsumoto et al., 2008]; [Kido et al., 2010]; [Nihashi et al., 2017]).

SNB-78 = assay: 39-cancer cell panel assay: SNB-78; assay type: cell-based; conditions: Homo sapiens, CNS
DU-145 = assay: 39-cancer cell panel assay: DU-145; assay type: cell-based; conditions: Homo sapiens, Pro
MKN7 = assay: 39-cancer cell panel assay: MKN7; assay type: cell-based; conditions: Homo sapiens, MKN-7, St
DMS273 = assay: 39-cancer cell panel assay: DMS273; assay type: cell-based; conditions: Homo sapiens, DMS-273, Lu
HBC-4 = assay: 39-cancer cell panel assay: HBC-4; assay type: cell-based; conditions: Homo sapiens, HBC4, Br
MKN1 = assay: 39-cancer cell panel assay: MKN1; assay type: cell-based; conditions: Homo sapiens, MKN-1, St
Complex II = molecular target: T1, Complex II (Bos taurus, UniProt P35720+Q3T189+Q95123); assay: Succinate:quinone reductase (complex II) activity, bovine mitochondria; assay type: biochemical
T1 construct: from tissue; host or cells: bovine mitochondrial fraction / sub-mitochondrial particles

NCI-H226 = assay: 39-cancer cell panel assay: NCI-H226; assay type: cell-based; conditions: Homo sapiens, Lu
U251 = assay: 39-cancer cell panel assay: U251; assay type: cell-based; conditions: Homo sapiens, U-251, CNS
MDA-MB-231 = assay: 39-cancer cell panel assay: MDA-MB-231; assay type: cell-based; conditions: Homo sapiens, Br
Complex I = assay: NADH dehydrogenase (complex I) activity, bovine mitochondria; assay type: biochemical; conditions: at 5 μM
Description: as §1

BSY-1 = assay: 39-cancer cell panel assay: BSY-1; assay type: cell-based; conditions: Homo sapiens, Br
NCI-H522 = assay: 39-cancer cell panel assay: NCI-H522; assay type: cell-based; conditions: Homo sapiens, Lu
DMS114 = assay: 39-cancer cell panel assay: DMS114; assay type: cell-based; conditions: Homo sapiens, DMS-114, Lu
HBC-5 = assay: 39-cancer cell panel assay: HBC-5; assay type: cell-based; conditions: Homo sapiens, HBC5, Br
SF-268 = assay: 39-cancer cell panel assay: SF-268; assay type: cell-based; conditions: Homo sapiens, CNS
PC-3 = assay: 39-cancer cell panel assay: PC-3; assay type: cell-based; conditions: Homo sapiens, Pro
MCF-7 = assay: 39-cancer cell panel assay: MCF-7; assay type: cell-based; conditions: Homo sapiens, MCF7, Br
MKN45 = assay: 39-cancer cell panel assay: MKN45; assay type: cell-based; conditions: Homo sapiens, MKN-45, St
OVCAR-5 = assay: 39-cancer cell panel assay: OVCAR-5; assay type: cell-based; conditions: Homo sapiens, Ov
OVCAR-4 = assay: 39-cancer cell panel assay: OVCAR-4; assay type: cell-based; conditions: Homo sapiens, Ov
HCC2998 = assay: 39-cancer cell panel assay: HCC2998; assay type: cell-based; conditions: Homo sapiens, HCC 2998, Co
SNB-75 = assay: 39-cancer cell panel assay: SNB-75; assay type: cell-based; conditions: Homo sapiens, CNS
OVCAR-3 = assay: 39-cancer cell panel assay: OVCAR-3; assay type: cell-based; conditions: Homo sapiens, Ov
St-4 = assay: 39-cancer cell panel assay: St-4; assay type: cell-based; conditions: Homo sapiens
SK-OV-3 = assay: 39-cancer cell panel assay: SK-OV-3; assay type: cell-based; conditions: Homo sapiens
HDF cells = assay: Cytotoxicity assay (Cell Counting Kit-8 / WST-8) on HDF cells; assay type: cell-based; conditions: Homo sapiens
Description: (§2) For hypoxia and nutrient-deprived culture conditions, cells were incubated under 1% oxygen in glucose and glutamine-free DMEM (Gibco) without FBS.
(§3) DLD-1 or HDF cells were seeded at 2.5 × 10^4 cells/well on a 96-well plate with normal medium, and cultured overnight under normal culture condition. The cells were washed with PBS and the medium was replaced to either normal medium or glucose and glutamine-free DMEM without FBS. Test compounds or DMSO as a control were added to the wells. The cells in normal medium were cultured under normal culture conditions, while cells in nutrient-deprived medium were cultured under hypoxia condition. After 24 or 48 h incubation, the cells were washed with PBS, 100 μl of fresh normal medium, and 10 μl of Cell Counting Kit-8 solution (Donjindo, Japan) was added to each well. After 3 h incubation under normal culture condition, the absorbance was measured at 450 nm using SpectraMax M2e-TUY microplate reader (Molecular Devices). Cell viability of test wells was calculated based on absorbance of control wells containing DMSO according to manufacturer’s protocol.

SF-539 = assay: 39-cancer cell panel assay: SF-539; assay type: cell-based; conditions: Homo sapiens, CNS
Complexes I–III = assay: NADH-cytochrome c reductase (complexes I–III) activity, bovine mitochondria; assay type: biochemical
Description: as §1

HT-29 = assay: 39-cancer cell panel assay: HT-29; assay type: cell-based; conditions: Homo sapiens, Co
DLD-1 cells = assay: Cytotoxicity assay (Cell Counting Kit-8 / WST-8) on DLD-1 cells; assay type: cell-based, human; conditions: Homo sapiens
Description: as §2, §3

LOX-IMVI = assay: 39-cancer cell panel assay: LOX-IMVI; assay type: cell-based; conditions: Homo sapiens, Me
HCT-116 = assay: 39-cancer cell panel assay: HCT-116; assay type: cell-based; conditions: Homo sapiens, Co
OVCAR-8 = assay: 39-cancer cell panel assay: OVCAR-8; assay type: cell-based; conditions: Homo sapiens, Ov
KM-12 = assay: 39-cancer cell panel assay: KM-12; assay type: cell-based, human; conditions: Co
A549 = assay: 39-cancer cell panel assay: A549; assay type: cell-based; conditions: Homo sapiens, Lu
Complex III = molecular target: T2, Complex III (Bos taurus, UniProt P00157); assay: Quinol oxidase (complex III) activity, bovine mitochondria; assay type: biochemical; conditions: ubiquinol oxidase activity
T2 construct: from tissue; host or cells: bovine mitochondrial fraction / sub-mitochondrial particles

NCI-H23 = assay: 39-cancer cell panel assay: NCI-H23; assay type: cell-based; conditions: Homo sapiens, Lu
MKN74 = assay: 39-cancer cell panel assay: MKN74; assay type: cell-based; conditions: Homo sapiens, MKN-74, St
[1] = molecular target: T3, human dihydroorotate dehydrogenase (HsDHODH) (Homo sapiens, UniProt Q02127); assay: Inhibition of recombinant human DHODH enzyme activity; assay type: biochemical; conditions: recombinant human DHODH; purified enzyme fixed at 10 nM; read-out: IC50 (nM), inhibition of human DHODH
T3 construct: made in house

RXF-631L = assay: 39-cancer cell panel assay: RXF-631L; assay type: cell-based; conditions: Homo sapiens, Re
ACHN = assay: 39-cancer cell panel assay: ACHN; assay type: cell-based; conditions: Homo sapiens, Re
SF-295 = assay: 39-cancer cell panel assay: SF-295; assay type: cell-based; conditions: Homo sapiens, CNS
NCI-H460 = assay: 39-cancer cell panel assay: NCI-H460; assay type: cell-based; conditions: Homo sapiens, Lu
HCT-15 = assay: 39-cancer cell panel assay: HCT-15; assay type: cell-based; conditions: Homo sapiens, Co
MKN28 = assay: 39-cancer cell panel assay: MKN28; assay type: cell-based; conditions: Homo sapiens, MKN-28, St

T3 sequence (Q02127 whole entry): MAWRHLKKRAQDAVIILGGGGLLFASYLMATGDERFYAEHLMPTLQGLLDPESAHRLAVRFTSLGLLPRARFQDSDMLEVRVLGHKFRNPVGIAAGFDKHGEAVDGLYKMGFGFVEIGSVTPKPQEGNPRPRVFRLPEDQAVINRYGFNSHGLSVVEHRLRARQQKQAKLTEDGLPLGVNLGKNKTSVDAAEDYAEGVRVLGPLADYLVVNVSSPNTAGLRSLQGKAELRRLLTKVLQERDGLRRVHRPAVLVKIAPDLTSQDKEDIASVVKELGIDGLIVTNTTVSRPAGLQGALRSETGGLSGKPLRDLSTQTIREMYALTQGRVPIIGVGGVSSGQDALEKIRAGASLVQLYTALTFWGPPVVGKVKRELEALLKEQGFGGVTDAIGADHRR
T1 sequence (P31039 45-665 partner limits assumed): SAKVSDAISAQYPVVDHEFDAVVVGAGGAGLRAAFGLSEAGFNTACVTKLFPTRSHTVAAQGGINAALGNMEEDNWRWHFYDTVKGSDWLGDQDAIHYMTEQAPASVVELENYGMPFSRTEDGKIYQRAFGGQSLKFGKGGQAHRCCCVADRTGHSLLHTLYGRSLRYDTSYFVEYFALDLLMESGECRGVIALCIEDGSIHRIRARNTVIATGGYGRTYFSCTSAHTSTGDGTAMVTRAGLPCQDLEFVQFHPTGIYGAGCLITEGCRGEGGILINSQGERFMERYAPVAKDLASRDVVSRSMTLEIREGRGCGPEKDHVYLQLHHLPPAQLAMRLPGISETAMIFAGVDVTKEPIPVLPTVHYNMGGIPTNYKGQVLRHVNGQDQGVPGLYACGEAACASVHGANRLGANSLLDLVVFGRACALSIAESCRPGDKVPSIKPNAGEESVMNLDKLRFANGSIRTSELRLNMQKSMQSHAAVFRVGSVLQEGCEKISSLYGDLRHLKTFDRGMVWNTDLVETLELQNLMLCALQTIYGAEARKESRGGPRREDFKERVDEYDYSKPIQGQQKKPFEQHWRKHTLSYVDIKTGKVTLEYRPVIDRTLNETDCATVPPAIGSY
T1 sequence (Q3T189 29-280): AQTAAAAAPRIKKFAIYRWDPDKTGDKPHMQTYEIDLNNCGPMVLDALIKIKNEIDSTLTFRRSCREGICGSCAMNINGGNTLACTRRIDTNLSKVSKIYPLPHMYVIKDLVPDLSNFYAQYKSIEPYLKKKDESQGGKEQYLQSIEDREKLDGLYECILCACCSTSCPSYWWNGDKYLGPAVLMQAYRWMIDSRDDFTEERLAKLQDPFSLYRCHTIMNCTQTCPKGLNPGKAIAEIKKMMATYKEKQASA
T1 sequence (P35720 30-169): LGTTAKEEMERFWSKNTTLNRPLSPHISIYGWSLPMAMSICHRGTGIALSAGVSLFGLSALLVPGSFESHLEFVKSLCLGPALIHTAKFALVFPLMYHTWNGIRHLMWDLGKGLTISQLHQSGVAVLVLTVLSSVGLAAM
T1 sequence (Q95123 56-158): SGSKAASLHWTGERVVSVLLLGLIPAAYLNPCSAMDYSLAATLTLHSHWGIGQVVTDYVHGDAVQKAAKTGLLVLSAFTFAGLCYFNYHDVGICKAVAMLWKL

Molecule CC(=O)OC(C)/C(C)=C/CC/C(C)=C/Cc1c(O)c(Cl)c(C)c(C=O)c1O (stereo not drawn) [Compound 7] has an IC50 (Complex II–III) of 2.3 ± 0.16 µM, a GI50 (SNB-78) of 21 µM and a GI50 (DU-145) of 14 µM. The GI50 (MKN7) was 16 µM, the GI50 (DMS273) was 0.91 µM and the GI50 (HBC-4) was 5 µM. It also gave a GI50 (MKN1) of 16 µM, an inhibition at 5 µM (Complex II) of 3.2 ± 6.7% and a GI50 (NCI-H226) of 11 µM. The GI50 (U251) was 1.5 µM, the GI50 (MDA-MB-231) was 11 µM and the “Inhibition (%) Complex I” value (Complex I) was 15 ± 2.3%. The GI50 (BSY-1) was 20 µM, the GI50 (NCI-H522) was 4.9 µM and the GI50 (DMS114) was 14 µM. For the same molecule, the GI50 (HBC-5) was 25 µM, the GI50 (SF-268) was 5 µM and the GI50 (PC-3) was 15 µM. For the same molecule, the GI50 (MCF-7) was 4.9 µM, the GI50 (MKN45) was 20 µM and the GI50 (OVCAR-5) was 18 µM. The GI50 (OVCAR-4) was 27 µM, the GI50 (HCC2998) was 13 µM and the GI50 (SNB-75) was 22 µM. For the same molecule, the GI50 (OVCAR-3) was 13 µM, the GI50 (St-4) was 13 µM and the GI50 (SK-OV-3) was 12 µM. It also gave an IC50 (HDF cells; read-out: IC50 (μM) HDF (24 h) Hypoxia nutrient (-), hypoxia (1% oxygen), nutrient (-)) of 3.4 ± 0.36 µM, an IC50 (HDF cells; read-out: IC50 (μM) HDF (24 h) Normoxia nutrient (+), normoxia, nutrient (+)) greater than 100 µM and a GI50 (SF-539) of 0.27 µM. For the same molecule, the IC50 (Complexes I–III) was 0.46 ± 0.01 µM, the GI50 (HT-29) was 3.2 µM and the IC50 (DLD-1 cells; read-out: IC50 (μM) DLD-1 (24 h) Hypoxia nutrient (-), DLD-1, 24 h, hypoxia (1% oxygen), nutrient (-)) was 2 ± 0.19 µM. The IC50 (DLD-1 cells; read-out: IC50 (μM) DLD-1 (24 h) Normoxia nutrient (+), DLD-1, 24 h, normoxia, nutrient (+)) was greater than 100 µM, the IC50 (DLD-1 cells; DLD-1, 48 h, hypoxia (1% oxygen), nutrient (-), read-out: IC50 (μM) DLD-1 (48 h) Hypoxia nutrient (-)) was 0.95 ± 0.059 µM and the IC50 (DLD-1 cells; DLD-1, 48 h, normoxia, nutrient (+), read-out: IC50 (μM) DLD-1 (48 h) Normoxia nutrient (+)) was greater than 100 µM. The GI50 (LOX-IMVI) was 1.5 µM, the GI50 (HCT-116) was 1.5 µM and the GI50 (OVCAR-8) was 8.8 µM. The “GI50 (μM) KM-12” value (KM-12) was 5.7 µM, the GI50 (A549) was 3.3 µM and the inhibition at 5 µM (Complex III) was greater than 80%. For the same molecule, the GI50 (NCI-H23) was 15 µM, the GI50 (MKN74) was 11 µM and the IC50 [1] was 6.4 ± 0.2 nM. The GI50 (RXF-631L) was 7.5 µM, the GI50 (ACHN) was 9.9 µM and the GI50 (SF-295) was 8 µM. The GI50 (NCI-H460) was 0.94 µM, the GI50 (HCT-15) was 0.58 µM and the GI50 (MKN28) was 11 µM.
